In patent publication US9227971B2, “Pyrazolo[1,5-a]pyrimidine compounds as mTOR inhibitors” (Merck Sharp & Dohme Corp., priority 2010, dated 2016):
Where two headings read alike, the source gives them in different places.

What was measured:
[1] = system: phosphorylated 4E-BP1 Thr37/46 (p4E-BP1 Thr37/46), mTORC1 activity, PC3 cells; experiment: mTOR target engagement assay, immunofluorescent cell-based, p4E-BP1 Thr37/46 readout (mTORC1 activity); settings: Homo sapiens, read-out: p4E-BP1 Thr37/46 IC50
Procedure, shortened: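 PTEN-mutant PC3 prostate cells were treated with serially diluted compound in 5% FBS F12 medium (0.25% DMSO) for ninety minutes at 37° C, glyoxal-fixed, then immunostained overnight at 4° C for p4E-BP1 Thr37/46 with an Alexa Fluor 488 secondary. IC50 came from four-parameter fits of fluorescence, DMSO-only wells defining 100%.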

[2] = system: phosphorylated AKT Ser473 (pAKT S473), mTORC2 activity, PC3 cells; experiment: mTOR target engagement assay, immunofluorescent cell-based, pAKT S473 readout (mTORC2 activity); settings: Homo sapiens
Procedure, shortened: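 After blocking, cells were stained overnight at 4 °C with anti-pAKT S473 antibody, then a fluorescent secondary; inhibition was read as reduced fluorescence intensity.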

[3] = PC-3, PC3 cells, compound treatment ninety minutes at 37° C.

| SMILES | IC50 ([1]; PC-3, Table 6-1, PC3 cells) [nM] | IC50 ([2]; PC-3, Table 6-1, PC3 cells) [nM] | IC50 [1, 3] [nM] | IC50 [2, 3] [nM] |
| --- | --- | --- | --- | --- |
| COC(=O)N1[C@@H]2CC[C@H]1C[C@H](c1nc3c(-c4ccc(-c5ncc[nH]5)nc4)cnn3c(N)c1C(C)=O)C2 [Compound 6.25, (1R,3s,5S)-methyl 3-(3-(6-(1H-imidazol-2-yl)pyridin-3-yl)-6-acetyl-7-aminopyrazolo[1,5-a]pyrimidin-5-yl)-8-azabicyclo[3.2.1]octane-8-carboxylate] | 1 to 100 | 1 to 100 |  |  |
| CC(=O)c1c([C@@H]2C[C@H]3CC[C@@H](C2)N3C(=O)CO)nc2c(-c3ccc(-c4ncc(C)[nH]4)nc3)cnn2c1N [Compound 6.26, 1-((1R,3s,5S)-3-(6-acetyl-7-amino-3-(6-(5-methyl-1H-imidazol-2-yl)pyridin-3-yl)pyrazolo[1,5-a]pyrimidin-5-yl)-8-azabicyclo[3.2.1]octan-8-yl)-2-hydroxyethanone] | 1 to 100 | 1 to 100 |  |  |
| Cc1cnc(-c2ccc(-c3cnn4c(N)c(C5CC5)c([C@@H]5C[C@H]6CC[C@@H](C5)N6C(=O)CO)nc34)cn2)[nH]1 [Compound 6.27, 1-((1R,3s,5S)-3-(7-amino-6-cyclopropyl-3-(6-(5-methyl-1H-imidazol-2-yl)pyridin-3-yl)pyrazolo[1,5-a]pyrimidin-5-yl)-8-azabicyclo[3.2.1]octan-8-yl)-2-hydroxyethanone] | 1 to 100 | 1 to 100 |  |  |
| CC(=O)c1c([C@@H]2C[C@H]3CC[C@@H](C2)N3C(N)=O)nc2c(-c3ccc(-c4ncc[nH]4)nc3)cnn2c1N [Compound 6.30, (1R,3s,5S)-3-(3-(6-(1H-imidazol-2-yl)pyridin-3-yl)-6-acetyl-7-aminopyrazolo[1,5-a]pyrimidin-5-yl)-8-azabicyclo[3.2.1]octane-8-carboxamide] | 1 to 100 | 1 to 100 |  |  |
| NC(=O)N1[C@@H]2CC[C@H]1C[C@H](c1nc3c(-c4ccc(-c5ncc[nH]5)nc4)cnn3c(N)c1C1CC1)C2 [Compound 6.31, (1R,3s,5S)-3-(3-(6-(1H-imidazol-2-yl)pyridin-3-yl)-7-amino-6-cyclopropylpyrazolo [1,5-a]pyrimidin-5-yl)-8-azabicyclo[3.2.1]octane-8-carboxamide] | 1 to 100 | 1 to 100 |  |  |
| Cc1nc(-c2ccc(-c3cnn4c(N)c(C5CC5)c([C@@H]5C[C@H]6CC[C@@H](C5)N6C(=O)CO)nc34)cn2)[nH]c1C [Compound 6.32, 1-((1R,3s,5S)-3-(7-amino-6-cyclopropyl-3-(6-(4,5-dimethyl-1H-imidazol-2-yl)pyridin-3-yl)pyrazolo[1,5-a]pyrimidin-5-yl)-8-azabicyclo[3.2.1]octan-8-yl)-2-hydroxyethanone] | 100 to 1000 | 1 to 100 |  |  |
| CS(=O)(=O)c1c([C@@H]2C[C@H]3CC[C@@H](C2)N3C(=O)CO)nc2c(-c3ccc(-c4ncc[nH]4)cc3)cnn2c1N [Compound 6.35, 1-((1R,3s,5S)-3-(3-(4-(1H-imidazol-2-yl)phenyl)-7-amino-6-(methylsulfonyl)pyrazolo [1,5-a]pyrimidin-5-yl)-8-azabicyclo[3.2.1]octan-8-yl)-2-hydroxyethanone] | 100 to 1000 | 1 to 100 |  |  |
| Nc1c(C2CC2)c([C@@H]2C[C@H]3CC[C@@H](C2)N3C(=O)c2nnc[nH]2)nc2c(-c3ccc(-c4ncc[nH]4)c(F)c3)cnn12 [Compound 6.36, ((1R,3s,5S)-3-(7-amino-6-cyclopropyl-3-(3-fluoro-4-(1H-imidazol-2-yl)phenyl)pyrazolo[1,5-a]pyrimidin-5-yl)-8-azabicyclo[3.2.1]octan-8-yl)(4H-1,2,4-triazol-3-yl)methanone] | 1 to 100 | 1 to 100 |  |  |
| Nc1c(C2CC2)c([C@@H]2C[C@H]3CC[C@@H](C2)N3C(=O)CO)nc2c(-c3ccc(-c4ncc[nH]4)c(F)c3)cnn12 [Compound 6.37, 1-((1R,3s,5S)-3-(7-amino-6-cyclopropyl-3-(3-fluoro-4-(1H-imidazol-2-yl)phenyl)pyrazolo[1,5-a]pyrimidin-5-yl)-8-azabicyclo[3.2.1]octan-8-yl)-2-hydroxyethanone] | 1 to 100 | 1 to 100 |  |  |
| CC(=O)c1c([C@@H]2C[C@H]3CC[C@@H](C2)N3C(=O)CO)nc2c(-c3ccc(-c4ncc(C)[nH]4)c(F)c3)cnn2c1N [Compound 6.38, 1-((1R,3s,5S)-3-(6-acetyl-7-amino-3-(3-fluoro-4-(5-methyl-1H-imidazol-2-yl)phenyl)pyrazolo[1,5-a]pyrimidin-5-yl)-8-azabicyclo[3.2.1]octan-8-yl)-2-hydroxyethanone] | 100 to 1000 | 1 to 100 |  |  |
| CC(=O)c1c([C@@H]2C[C@H]3CC[C@@H](C2)N3C(=O)c2nnc[nH]2)nc2c(-c3ccc(-c4ncc(C)[nH]4)c(F)c3)cnn2c1N [Compound 6.39, 1-(5-((1R,3s,5S)-8-(4H-1,2,4-triazole-3-carbonyl)-8-azabicyclo[3.2.1]octan-3-yl)-7-amino-3-(3-fluoro-4-(5-methyl-1H-imidazol-2-yl)phenyl)pyrazolo[1,5-a]pyrimidin-6-yl)ethanone] | 100 to 1000 | 1 to 100 |  |  |
| CC(=O)c1c([C@@H]2C[C@H]3CC[C@@H](C2)N3C(=O)CO)nc2c(-c3ccc(-c4ncc[nH]4)c(F)c3)cnn2c1N [Compound 6.40, 1-((1R,3s,5S)-3-(6-acetyl-7-amino-3-(3-fluoro-4-(1H-imidazol-2-yl)phenyl)pyrazolo[1,5-a]pyrimidin-5-yl)-8-azabicyclo[3.2.1]octan-8-yl)-2-hydroxyethanone] | 1 to 100 | 1 to 100 |  |  |
| CC(=O)c1c([C@@H]2C[C@H]3CC[C@@H](C2)N3C(=O)c2nnc[nH]2)nc2c(-c3ccc(-c4ncc[nH]4)c(F)c3)cnn2c1N [Compound 6.41, 1-(5-((1R,3s,5S)-8-(4H-1,2,4-triazole-3-carbonyl)-8-azabicyclo[3.2.1]octan-3-yl)-7-amino-3-(3-fluoro-4-(1H-imidazol-2-yl)phenyl)pyrazolo[1,5-a]pyrimidin-6-yl)ethanone] | 1 to 100 | 1 to 100 |  |  |
| CC(=O)c1c([C@@H]2C[C@H]3CC[C@@H](C2)N3C(=O)CO)nc2c(-c3ccc(-c4ncc[nH]4)cc3)cnn2c1N [Compound 6.42, 1-((1R,3s,5S)-3-(3-(4-(1H-imidazol-2-yl)phenyl)-6-acetyl-7-aminopyrazolo[1,5-a]pyrimidin-5-yl)-8-azabicyclo[3.2.1]octan-8-yl)-2-hydroxyethanone] | 1 to 100 | 1 to 100 |  |  |
| CC(=O)c1c([C@@H]2C[C@H]3CC[C@@H](C2)N3C(=O)c2nnc[nH]2)nc2c(-c3ccc(-c4ncc[nH]4)cc3)cnn2c1N [Compound 6.43, 1-(3-(4-(1H-imidazol-2-yl)phenyl)-5-((1R,3s,5S)-8-(4H-1,2,4-triazole-3-carbonyl)-8-azabicyclo[3.2.1]octan-3-yl)-7-aminopyrazolo[1,5-a]pyrimidin-6-yl)ethanone] | 1 to 100 | 1 to 100 |  |  |
| CC(=O)c1c([C@@H]2C[C@H]3CC[C@@H](C2)N3C(=O)C(C)(CO)CO)nc2c(-c3ccc(-c4ncc[nH]4)nc3)cnn2c1N [Compound 6.46, 1-((1R,3s,5S)-3-(3-(6-(1H-imidazol-2-yl)pyridin-3-yl)-6-acetyl-7-aminopyrazolo[1,5-a]pyrimidin-5-yl)-8-azabicyclo[3.2.1]octan-8-yl)-3-hydroxy-2-(hydroxymethyl)-2-methylpropan-1-one] | 100 to 1000 | 100 to 1000 |  |  |
| CC(=O)c1c([C@@H]2C[C@H]3CC[C@@H](C2)N3C(=O)c2nnc[nH]2)nc2c(-c3ccc(CO)nc3)cnn2c1N [Compound 7.1, 1-(5-((1R,3s,5S)-8-(4H-1,2,4-triazole-3-carbonyl)-8-azabicyclo[3.2.1]octan-3-yl)-7-amino-3-(6-(hydroxymethyl)pyridin-3-yl)pyrazolo[1,5-a]pyrimidin-6-yl)ethanone] |  |  | 1 to 100 | 1 to 100 |
| CCC(O)c1ccc(-c2cnn3c(N)c(C(C)=O)c([C@@H]4C[C@H]5CC[C@@H](C4)N5C(=O)c4nnc[nH]4)nc23)cn1 (stereo partly drawn) [Compound 7.3] |  |  | 100 to 1000 | 1 to 100 |
| CC(=O)c1c([C@@H]2C[C@H]3CC[C@@H](C2)N3C(=O)c2nnc[nH]2)nc2c(-c3ccc(C(C)O)nc3)cnn2c1N (stereo partly drawn) [Compound 7.4, 1-(5-((1R,3s,5S)-8-(4H-1,2,4-triazole-3-carbonyl)-8-azabicyclo[3.2.1]octan-3-yl)-7-amino-3-(6-(1-hydroxyethyl)pyridin-3-yl)pyrazolo[1,5-a]pyrimidin-6-yl)ethanone] |  |  | 1 to 100 | 1 to 100 |
| CC(=O)c1c([C@@H]2C[C@H]3CC[C@@H](C2)N3C(=O)c2ncn[nH]2)nc2c(-c3ccc(C(C)(C)O)nc3)cnn2c1N [Compound 7.5, 1-(5-((1R,3s,5S)-8-(1H-1,2,4-triazole-5-carbonyl)-8-azabicyclo[3.2.1]octan-3-yl)-7-amino-3-(6-(2-hydroxypropan-2-yl)pyridin-3-yl)pyrazolo[1,5-a]pyrimidin-6-yl)ethanone] |  |  | 1 to 100 | 1 to 100 |
| CC(=O)c1c([C@@H]2C[C@H]3CC[C@@H](C2)N3C(=O)c2nnc[nH]2)nc2c(-c3ccc(C(O)CC(C)C)nc3)cnn2c1N (stereo partly drawn) [Compound 7.6, 1-(5-((1R,3s,5S)-8-(4H-1,2,4-triazole-3-carbonyl)-8-azabicyclo[3.2.1]octan-3-yl)-7-amino-3-(6-(1-hydroxy-3-methylbutyl)pyridin-3-yl)pyrazolo[1,5-a]pyrimidin-6-yl)ethanone] |  |  | 100 to 1000 | 1000 to 10000 |
